For one data set, the system named is Cdk5. Also on record: method as in Jorda et al. [23]. Conditions: ref Jorda et al. [23]; cited from earlier work.
A further data set has as its system Cdk2. Also on record: method as in Jorda et al. [23]. The conditions noted are these: ref Jorda et al. [23]; cited from earlier work.
The next data set addresses T1, Cdk2/CycE (Homo sapiens, UniProt P24941).
T1 construct: purchased ProQinase (Freiburg, Germany)
Nature of the data set: In vitro kinase profile (ProQinase). Type of data set: biochemical. The procedure: (§1) Therefore, it was of interest to see which kinases, especially which Cdks, are inhibited by those compounds. The kinase profiling was performed by ProQinase (Freiburg, Germany) for LGR 1406 and 1407. For LGR 1404 kinase profiling has recently been published previously. LGR 1406 and 1407 were tested for their IC50 in a panel of 24 kinases, including the Cdk1, Cdk2, Cdk4, Cdk5, Cdk6, Cdk7 and Cdk9. The other kinases tested were PTK6, EGFR, FAK, FGFR1 and FGFR2, NLK, PAK4, VEGFR1 and VEGFR2, MEK1, ROCK1, RAF1, ALK, RSK3, AURKA, and AMPKα1.

In the next data set the target is T2, RSK3 (Homo sapiens, UniProt Q15349).
T2 construct: purchased ProQinase (Freiburg, Germany)
T2 sequence (Q15349 whole entry): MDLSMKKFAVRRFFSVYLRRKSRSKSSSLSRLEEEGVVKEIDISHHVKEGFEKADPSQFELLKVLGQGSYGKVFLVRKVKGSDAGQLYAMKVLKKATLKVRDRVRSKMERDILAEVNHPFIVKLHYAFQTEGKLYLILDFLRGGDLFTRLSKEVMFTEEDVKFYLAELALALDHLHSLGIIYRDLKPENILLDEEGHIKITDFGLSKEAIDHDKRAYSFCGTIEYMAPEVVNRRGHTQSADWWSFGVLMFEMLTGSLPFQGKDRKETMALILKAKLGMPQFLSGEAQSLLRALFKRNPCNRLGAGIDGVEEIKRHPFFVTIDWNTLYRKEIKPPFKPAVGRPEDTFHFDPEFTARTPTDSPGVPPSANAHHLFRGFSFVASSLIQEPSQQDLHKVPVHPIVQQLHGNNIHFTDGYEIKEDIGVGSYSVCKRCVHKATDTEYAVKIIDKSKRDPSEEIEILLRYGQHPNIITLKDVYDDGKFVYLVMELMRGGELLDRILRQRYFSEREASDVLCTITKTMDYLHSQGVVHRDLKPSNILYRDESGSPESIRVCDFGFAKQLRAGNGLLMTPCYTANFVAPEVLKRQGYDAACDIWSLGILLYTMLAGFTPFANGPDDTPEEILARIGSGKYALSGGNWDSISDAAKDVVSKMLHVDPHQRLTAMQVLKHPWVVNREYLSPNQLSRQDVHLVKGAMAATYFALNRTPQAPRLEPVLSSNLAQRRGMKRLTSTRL
The data set is described as follows: In vitro kinase profile (ProQinase). The format is biochemical. The protocol:
as §1

The target in the next data set is T3, Cdk4/CycD1 (Homo sapiens, UniProt P11802).
T3 construct: purchased ProQinase (Freiburg, Germany)
T3 sequence (P11802 whole entry): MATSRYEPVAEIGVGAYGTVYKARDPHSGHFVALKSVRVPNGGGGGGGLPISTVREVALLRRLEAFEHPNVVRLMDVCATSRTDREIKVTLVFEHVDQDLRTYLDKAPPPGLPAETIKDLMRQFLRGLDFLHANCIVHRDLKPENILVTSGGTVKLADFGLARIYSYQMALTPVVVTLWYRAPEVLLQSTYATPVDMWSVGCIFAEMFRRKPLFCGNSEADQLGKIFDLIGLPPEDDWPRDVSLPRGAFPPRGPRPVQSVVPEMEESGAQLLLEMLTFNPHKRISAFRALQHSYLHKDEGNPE
T3 sequence (P24385 whole entry partner): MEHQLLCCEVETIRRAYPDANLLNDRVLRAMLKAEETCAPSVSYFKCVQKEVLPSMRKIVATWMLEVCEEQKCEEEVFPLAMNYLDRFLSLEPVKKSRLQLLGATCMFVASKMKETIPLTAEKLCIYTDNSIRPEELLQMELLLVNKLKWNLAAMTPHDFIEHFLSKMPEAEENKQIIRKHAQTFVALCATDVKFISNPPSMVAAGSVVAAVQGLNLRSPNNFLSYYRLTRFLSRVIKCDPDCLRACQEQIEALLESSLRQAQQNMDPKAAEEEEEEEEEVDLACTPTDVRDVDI
The data set is described as follows: In vitro kinase profile (ProQinase). The format is biochemical. The procedure:
as §1

In the next data set the target is T4, Cdk6/CycD1 (Homo sapiens, UniProt Q00534).
T4 construct: purchased ProQinase (Freiburg, Germany)
T4 sequence (Q00534 whole entry): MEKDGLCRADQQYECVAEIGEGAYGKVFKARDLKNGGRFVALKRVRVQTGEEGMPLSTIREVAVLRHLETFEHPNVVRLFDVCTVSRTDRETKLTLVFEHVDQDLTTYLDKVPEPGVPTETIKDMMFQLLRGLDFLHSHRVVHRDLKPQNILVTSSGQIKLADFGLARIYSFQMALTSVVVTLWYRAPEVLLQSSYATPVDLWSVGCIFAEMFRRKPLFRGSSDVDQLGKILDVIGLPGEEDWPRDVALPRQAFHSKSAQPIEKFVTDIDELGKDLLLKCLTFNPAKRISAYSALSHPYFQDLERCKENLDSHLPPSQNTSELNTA
T4 sequence (P24385 whole entry partner): as the sequence (P24385 whole entry partner) above
Nature of the data set: In vitro kinase profile (ProQinase). The format is biochemical. The procedure: as §1

The next data set addresses T5, PAK4 (Homo sapiens, UniProt O96013).
T5 construct: purchased ProQinase (Freiburg, Germany)
The data set is described as follows: In vitro kinase profile (ProQinase). The format is biochemical. The procedure: as §1

In a further data set the target is T6, Cdk7/CycH/MAT1 (Homo sapiens, UniProt P50613).
T6 construct: purchased ProQinase (Freiburg, Germany)
T6 sequence (P50613 whole entry): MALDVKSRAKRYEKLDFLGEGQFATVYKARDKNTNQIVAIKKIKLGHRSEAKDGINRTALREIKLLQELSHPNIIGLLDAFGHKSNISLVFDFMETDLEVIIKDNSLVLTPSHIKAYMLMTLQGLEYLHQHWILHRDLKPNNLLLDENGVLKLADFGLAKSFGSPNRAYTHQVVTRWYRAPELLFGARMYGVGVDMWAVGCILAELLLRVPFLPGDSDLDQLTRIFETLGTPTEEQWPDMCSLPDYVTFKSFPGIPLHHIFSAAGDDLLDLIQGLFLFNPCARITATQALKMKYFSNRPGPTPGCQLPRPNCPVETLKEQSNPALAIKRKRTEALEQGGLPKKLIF
T6 sequence (P51946 whole entry partner): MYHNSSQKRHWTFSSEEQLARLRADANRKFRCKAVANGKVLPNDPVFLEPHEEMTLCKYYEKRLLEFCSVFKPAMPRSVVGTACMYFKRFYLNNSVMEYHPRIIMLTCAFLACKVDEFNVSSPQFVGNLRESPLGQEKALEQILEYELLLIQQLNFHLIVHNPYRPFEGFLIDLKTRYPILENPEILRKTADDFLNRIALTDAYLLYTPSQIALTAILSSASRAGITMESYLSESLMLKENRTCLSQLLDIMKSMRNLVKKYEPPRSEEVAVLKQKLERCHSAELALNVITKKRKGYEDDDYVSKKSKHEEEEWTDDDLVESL
T6 sequence (P51948 whole entry partner): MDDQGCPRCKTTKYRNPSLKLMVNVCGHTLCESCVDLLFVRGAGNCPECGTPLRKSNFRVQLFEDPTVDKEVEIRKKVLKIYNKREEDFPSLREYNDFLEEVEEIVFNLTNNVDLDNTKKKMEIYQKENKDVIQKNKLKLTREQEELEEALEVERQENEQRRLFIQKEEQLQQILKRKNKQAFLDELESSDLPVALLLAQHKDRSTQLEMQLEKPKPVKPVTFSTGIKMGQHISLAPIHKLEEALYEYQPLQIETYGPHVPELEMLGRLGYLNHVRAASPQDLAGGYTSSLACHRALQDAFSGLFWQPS
The data set is described as follows: In vitro kinase profile (ProQinase). Type of data set: biochemical. The protocol:
as §1

A further data set deals with T7, FAK (Homo sapiens, UniProt Q05397).
T7 construct: purchased ProQinase (Freiburg, Germany)
T7 sequence (Q05397 whole entry): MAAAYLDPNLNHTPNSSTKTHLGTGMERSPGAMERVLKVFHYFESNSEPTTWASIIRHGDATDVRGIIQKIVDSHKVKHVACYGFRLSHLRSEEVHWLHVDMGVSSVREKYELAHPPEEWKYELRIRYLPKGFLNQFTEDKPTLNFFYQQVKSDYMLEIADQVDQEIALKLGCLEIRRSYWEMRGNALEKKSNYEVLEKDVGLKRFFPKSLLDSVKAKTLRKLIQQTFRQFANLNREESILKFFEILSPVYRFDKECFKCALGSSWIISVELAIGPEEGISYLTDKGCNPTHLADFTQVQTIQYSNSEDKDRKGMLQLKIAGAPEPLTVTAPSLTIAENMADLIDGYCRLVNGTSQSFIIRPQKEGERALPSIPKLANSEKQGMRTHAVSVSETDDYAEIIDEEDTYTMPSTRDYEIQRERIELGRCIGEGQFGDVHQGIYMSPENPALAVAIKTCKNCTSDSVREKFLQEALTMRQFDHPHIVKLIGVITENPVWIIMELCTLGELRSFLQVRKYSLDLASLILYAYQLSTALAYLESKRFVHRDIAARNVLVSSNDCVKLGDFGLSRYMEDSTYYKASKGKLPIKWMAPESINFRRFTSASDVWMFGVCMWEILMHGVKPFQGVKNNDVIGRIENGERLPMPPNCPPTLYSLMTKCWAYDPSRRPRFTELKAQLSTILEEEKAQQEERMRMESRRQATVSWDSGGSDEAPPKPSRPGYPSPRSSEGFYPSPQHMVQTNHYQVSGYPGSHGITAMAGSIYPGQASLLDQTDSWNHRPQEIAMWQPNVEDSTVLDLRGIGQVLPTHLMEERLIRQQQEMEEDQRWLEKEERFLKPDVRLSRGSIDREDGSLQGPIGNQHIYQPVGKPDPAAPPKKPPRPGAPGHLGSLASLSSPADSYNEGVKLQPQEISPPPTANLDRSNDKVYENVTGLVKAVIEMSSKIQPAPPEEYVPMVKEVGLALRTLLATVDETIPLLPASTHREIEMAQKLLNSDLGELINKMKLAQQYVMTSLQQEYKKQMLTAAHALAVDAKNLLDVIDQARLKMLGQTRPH
The data set is described as follows: In vitro kinase profile (ProQinase). Type of data set: biochemical. The protocol: as §1

A further data set addresses T8, Cdk2/CycA (Homo sapiens, UniProt P24941).
T8 construct: purchased ProQinase (Freiburg, Germany)
The data set is described as follows: In vitro kinase profile (ProQinase). The format is biochemical. The protocol:
as §1

A further data set has as its target T9, Aurora kinase A (Homo sapiens, UniProt O14965).
T9 construct: purchased ProQinase (Freiburg, Germany)
T9 sequence (O14965 1-403): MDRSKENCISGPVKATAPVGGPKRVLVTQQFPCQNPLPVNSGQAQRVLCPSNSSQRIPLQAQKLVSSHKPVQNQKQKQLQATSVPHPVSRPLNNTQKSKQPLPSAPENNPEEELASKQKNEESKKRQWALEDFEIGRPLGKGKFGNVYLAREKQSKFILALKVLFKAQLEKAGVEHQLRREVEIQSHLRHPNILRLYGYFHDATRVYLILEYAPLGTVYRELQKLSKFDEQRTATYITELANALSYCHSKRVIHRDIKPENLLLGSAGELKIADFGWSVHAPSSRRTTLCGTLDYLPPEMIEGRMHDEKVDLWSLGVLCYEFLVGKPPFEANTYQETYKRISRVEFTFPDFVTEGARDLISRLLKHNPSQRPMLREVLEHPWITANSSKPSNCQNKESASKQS
The data set is described as follows: In vitro kinase profile (ProQinase). Type of data set: biochemical. The procedure: as §1

The target in another data set is T10, Cdk5/p25 (Homo sapiens, UniProt Q00535).
T10 construct: purchased ProQinase (Freiburg, Germany)
T10 sequence (Q00535 whole entry): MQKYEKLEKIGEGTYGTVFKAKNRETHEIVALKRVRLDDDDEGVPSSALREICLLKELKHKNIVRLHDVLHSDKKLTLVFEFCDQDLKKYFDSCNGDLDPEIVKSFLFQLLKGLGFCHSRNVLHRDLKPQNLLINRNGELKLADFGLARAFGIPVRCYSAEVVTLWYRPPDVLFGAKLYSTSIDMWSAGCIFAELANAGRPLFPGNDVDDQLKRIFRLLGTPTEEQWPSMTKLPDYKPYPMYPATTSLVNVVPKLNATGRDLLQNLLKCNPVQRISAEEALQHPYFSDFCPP
T10 sequence (Q15078 99-307 partner limits assumed): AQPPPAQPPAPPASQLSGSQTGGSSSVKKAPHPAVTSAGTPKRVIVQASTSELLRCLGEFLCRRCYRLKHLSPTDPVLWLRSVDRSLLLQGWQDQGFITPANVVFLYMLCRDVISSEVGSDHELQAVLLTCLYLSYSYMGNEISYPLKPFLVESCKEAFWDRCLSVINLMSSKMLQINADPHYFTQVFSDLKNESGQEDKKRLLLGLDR
The data set is described as follows: In vitro kinase profile (ProQinase). The format is biochemical. The procedure:
as §1

Another data set relates to HMEC-1 cells. The data set is described as follows: Microscopy / propidium iodide staining for cell death at proliferation-assay cell density. Type of data set: cell-based. The conditions noted are these: 30 µM, 72 h. The procedure:
A: HMEC-1 cells were seeded in the same density as for the proliferation assay and treated with the respective compound at 30 µM for 72 h to test whether reduced cell numbers in the proliferation assay are due to inhibition of proliferation or to excessive cell death. No increase of detached, obviously dead or propidium iodide positive cells was detected. B and C: Confluent layers of HUVECs were scratched and the cells were allowed to migrate for 16 h in the presence or absence of 10 µM of the compounds. B: The columns indicate the area re-covered by migrating cells (n = 3, mean ± SEM, * p<0.05, One Way ANOVA, Dunnett). C: Scratches at endpoint, representative images taken out of three experiments.
HMEC-1 were seeded into 96-well-plates (1,500 cells/well). After 24 h, the cells were stimulated with the indicated compounds. At the same time point, cells in a reference plate were stained with crystal violet, serving as initial cell number. After 72 hours of stimulation, cells were fixed and stained with crystal-violet solution for 10 minutes, washed with water, and air dried. Crystal violet was eluted with dissolving buffer and absorbance was measured at 550 nm (Tecan Sunrise Absorbance reader, TECAN, Crailsheim, Germany). […] Phase contrast and fluorescence images were obtained with an inverted Nikon microscope (Ti, Nikon, Düsseldorf, Germany) equipped with a 10x objective.

T5 sequence (O96013 whole entry): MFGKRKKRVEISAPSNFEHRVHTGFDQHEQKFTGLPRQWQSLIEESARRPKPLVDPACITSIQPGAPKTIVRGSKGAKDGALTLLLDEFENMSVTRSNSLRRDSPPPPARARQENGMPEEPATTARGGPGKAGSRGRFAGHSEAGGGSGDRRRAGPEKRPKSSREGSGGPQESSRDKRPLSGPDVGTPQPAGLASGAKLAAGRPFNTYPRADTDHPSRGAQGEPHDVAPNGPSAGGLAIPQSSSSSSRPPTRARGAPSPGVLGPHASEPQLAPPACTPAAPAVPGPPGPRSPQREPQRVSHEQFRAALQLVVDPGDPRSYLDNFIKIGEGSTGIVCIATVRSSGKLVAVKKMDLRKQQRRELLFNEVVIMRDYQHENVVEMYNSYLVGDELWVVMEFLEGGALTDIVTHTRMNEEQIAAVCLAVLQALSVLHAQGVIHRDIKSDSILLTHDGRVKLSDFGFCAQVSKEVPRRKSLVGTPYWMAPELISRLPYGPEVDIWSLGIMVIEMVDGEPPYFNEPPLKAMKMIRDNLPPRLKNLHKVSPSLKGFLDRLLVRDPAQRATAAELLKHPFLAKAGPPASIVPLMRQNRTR

For the compound `CC[C@H](CO)Nc1nc(NCc2ccccc2)c2n[nH]c(C(C)C)c2n1` [LGR 1404, 7-Benzylamino-5(R)-[(1-hydroxymethyl)propylamino]-3-isopropyl-1(2)H-pyrazolo[4,3-d]pyrimidine], the IC50 in the data set on Cdk5 was 940 nM; in the data set on Cdk2, 220 nM.
For the compound `CC(C)c1n[nH]c2c(NCc3ccccc3)nc(NC3CCCCC3N)nc12` (centres unmarked) [LGR 1406, 5-[(2-E/Z-aminocyclohexyl)amino]-7-benzylamino-3-isopropyl-1(2)H-pyrazolo[4,3-d]pyrimidine], the IC50 was 590 nM at Cdk2/CycE; under 10000 nM against RSK3; 15000 nM against Cdk4/CycD1; over 100000 nM against Cdk6/CycD1; under 10000 nM on PAK4; over 100000 nM on Cdk7/CycH/MAT1. The IC50 was under 10000 nM against FAK, 990 nM against Cdk2/CycA, under 10000 nM against Aurora kinase A and 440 nM against Cdk5/p25. In addition, the “morphologically altered, dead or detached cells, loss of membrane integrity (propidium iodide)” value with HMEC-1 cells was “no increase of morphologically altered, dead or detached cells, and no loss of membrane integrity”.
As to `CC(C)c1n[nH]c2c(NCc3ccccc3)nc(NC3CCC(N)CC3)nc12` (centres unmarked) [LGR 1407, 5-[(4-E-aminocyclohexyl)amino]-7-benzylamino-3-isopropyl-1(2)H-pyrazolo[4,3-d]pyrimidine], the IC50 is 990 nM at Cdk2/CycE; 66000 nM against Cdk4/CycD1; 91000 nM on Cdk6/CycD1; over 100000 nM on Cdk7/CycH/MAT1; 1500 nM against Cdk2/CycA; at most 10000 nM against Aurora kinase A. For the same compound, on Cdk5/p25, the IC50 was determined as 1600 nM.

The values are drawn from paper PMC3545992, “Trisubstituted Pyrazolopyrimidines as Novel Angiogenesis Inhibitors” (PLoS ONE, 2013).
